These results are taken from ChEMBL document CHEMBL1641557, “3-(Pyridin-2-yl-ethynyl)benzamide metabotropic glutamate receptor 5 negative allosteric modulators: hit to lead studies” (Bioorg Med Chem Lett, 2011).

As usually defined, the half-life is the time needed for the level to fall by half in the phase considered. A higher half-life goes with slow decline. As a reminder, the AUC(0-t) is the area under the concentration-time curve up to a stated or last time point. For orientation: Cmax means the peak of the concentration-time curve. For orientation: bioavailability means dose-corrected exposure relative to a reference, in per cent. Read a high bioavailability as good availability. The Kp is the ratio of the level in a tissue or fluid to that in plasma or blood. As a reminder, the clearance is the rate of elimination divided by the concentration.

Series [1] can be described thus: Half life in rat liver microsomes. The series is classed as ADME, Microsome.
The nature of series [2]: AUClast in Beagle dog at 10 mg/kg, po. Also noted: time 0 - last, dose 10 mg/kg, route oral. Conditions: plasma. The series is classed as ADME, organism-based, Canis lupus familiaris.
Series [3] in a line: Cmax in Swiss Webster mouse at 10 mg/kg, po. Details: dose 10 mg/kg, route oral. It counts as ADME, organism-based. Conditions: in vivo.
Series [4] can be described thus: Oral bioavailability in Swiss Webster mouse at 10 mg/kg. It counts as ADME, organism-based. To be noted: in vivo.
The nature of series [5]: Ratio of drug level in brain to plasma in Swiss Webster mouse at 10 mg/kg, po. Also noted: dose 10 mg/kg, route oral. The series is classed as ADME, organism-based.
Series [6] can be described thus: Volume of distribution at steady state in Sprague-Dawley rat at 2 mg/kg, iv. The series is classed as ADME, organism-based. Details: dose 2 mg/kg, route intravenous. To be noted: in vivo, read-out: Vdss.
Series [7] is described as follows: Cmax in Beagle dog at 10 mg/kg, po. It counts as ADME, organism-based, Canis lupus familiaris. Also noted: dose 10 mg/kg, route oral. To be noted: in vivo.
Series [8] can be described thus: Oral bioavailability in Beagle dog at 10 mg/kg. The series is classed as ADME, organism-based, Canis lupus familiaris. Conditions: in vivo.
Series [9] in a line: Clearance in Swiss Webster mouse at 2 mg/kg, iv. It counts as ADME, organism-based. Details: dose 2 mg/kg, route intravenous. Conditions: in vivo.
A short description of series [10]: Volume of distribution at steady state in Beagle dog at 2 mg/kg, iv. It counts as ADME, organism-based, Canis lupus familiaris. Details: dose 2 mg/kg, route intravenous. Conditions: in vivo, read-out: Vdss.
Series [11] is described as follows: Clearance in Beagle dog at 2 mg/kg, iv. It counts as ADME, organism-based, Canis lupus familiaris. To be noted: in vivo. Also noted: dose 2 mg/kg, route intravenous.
Series [12] is described as follows: Cmax in Sprague-Dawley brain rat at 10 mg/kg, po. It counts as ADME, organism-based. Details: dose 10 mg/kg, route oral.
Series [13] can be described thus: Half life in Sprague-Dawley rat at 2 mg/kg, iv. It counts as ADME, organism-based. Also noted: dose 2 mg/kg, route intravenous. To be noted: in vivo.
A short description of series [14]: Volume of distribution at steady state in Swiss Webster mouse at 2 mg/kg, iv. It counts as ADME, organism-based. Details: dose 2 mg/kg, route intravenous. Conditions: in vivo, read-out: Vdss.
Series [15] in a line: AUClast in Swiss Webster mouse at 10 mg/kg, po. It counts as ADME, organism-based. Details: time 0 - last, dose 10 mg/kg, route oral. To be noted: plasma.
Series [16] is described as follows: Cmax in Sprague-Dawley rat at 10 mg/kg, po. Also noted: dose 10 mg/kg, route oral. To be noted: in vivo. The series is classed as ADME, organism-based.
Series [17] is described as follows: Clearance in Sprague-Dawley rat at 2 mg/kg, iv. Details: dose 2 mg/kg, route intravenous. To be noted: in vivo. The series is classed as ADME, organism-based.
Series [18] is described as follows: AUClast in Sprague-Dawley rat at 10 mg/kg, po. It counts as ADME, organism-based. Details: time 0 - last, dose 10 mg/kg, route oral. Conditions: plasma.
Series [19] is described as follows: Oral bioavailability in Sprague-Dawley rat at 10 mg/kg. The series is classed as ADME, organism-based. To be noted: in vivo.
The nature of series [20]: Ratio of drug level in brain to plasma in Sprague-Dawley rat at 10 mg/kg, po. It counts as ADME, organism-based. Also noted: dose 10 mg/kg, route oral.
Series [21] in a line: Half life in Beagle dog at 2 mg/kg, iv. It counts as ADME, organism-based, Canis lupus familiaris. Details: dose 2 mg/kg, route intravenous. Conditions: in vivo.
Series [22] can be described thus: Half life in Swiss Webster mouse at 2 mg/kg, iv. It counts as ADME, organism-based. Also noted: dose 2 mg/kg, route intravenous. To be noted: in vivo.
A short description of series [23]: Cmax in Swiss Webster mouse brain at 10 mg/kg, po. Also noted: dose 10 mg/kg, route oral. The series is classed as ADME, organism-based.

Each structure is given as a SMILES string.

On to `O=C(c1cccc(C#Cc2ccccc2)c1)N1CCN(c2ccccn2)CC1`, for which the half-life in [1] turned out to be 3 min.
Same read-out and setting: for `COc1cccc(C#Cc2cccc(C(=O)N3CCN(c4ccccn4)CC3)c2)c1` the value was 3 min.
Still for that read-out and setting: for `Nc1cccc(C#Cc2cccc(C(=O)N3CCN(c4ccccn4)CC3)c2)c1` the value was 2 min; for `COc1ccc(C#Cc2cccc(C(=O)N3CCN(c4ccccn4)CC3)c2)cc1`, 4 min.
Regarding `Cc1ccc(C#Cc2cccc(C(=O)N3CCN(c4ccccn4)CC3)c2)cc1`, the half-life in [1] stood at 5 min.
Still for that read-out and setting: the result for `O=C(c1cccc(C#CCc2ccccc2)c1)N1CCN(c2ccccn2)CC1` reads 4 min; that for `O=C(c1cccc(C#Cc2ccccn2)c1)N1CCN(c2ccccn2)CC1`, 5 min; that for `O=C(c1cccc(C#Cc2ccccc2)c1)N1CCN(c2cnccn2)CC1`, 4 min.
Still for that read-out and setting: for `O=C(c1cccc(C#Cc2ccccc2)c1)N1CCN(c2ccncn2)CC1` the value was 3 min.
Turning to `Cc1ccc(N2CCN(C(=O)c3cccc(C#Cc4ccccc4)c3)CC2)nc1`, the half-life in [1] was 13 min.
`COc1ccc(C(=O)N2CCN(c3ccccn3)CC2)cc1C#Cc1ccccc1`: the half-life in series [1] came to 13 min.
In series [1], `COc1ccc(C(=O)N2CCN(c3cnccn3)CC2)cc1C#Cc1ccccc1` displayed a half-life of 5 min.
On the same count and under the same terms, for `COc1ccc(C(=O)N2CCN(c3ccncn3)CC2)cc1C#Cc1ccccc1` the value was 21 min; for `COc1ccc(C(=O)N2CCN(c3ccc(C)cn3)CC2)cc1C#Cc1ccccc1`, 16 min.
`Cc1ccc(C(=O)N2CCN(c3ccccn3)CC2)cc1C#Cc1ccccc1` returned a half-life in series [1] of 13 min.
Turning to `Cc1ccc(C(=O)N2CCN(c3cnccn3)CC2)cc1C#Cc1ccccc1`, the half-life in [1] came out at 9 min.
Still for that read-out and setting: for `COc1ccc(C(=O)N2CCN(c3ccncn3)CC2)cc1C#Cc1cccc(Cl)c1` the value was 7 min.
Turning to `COc1ccc(C(=O)N2CCN(c3ccccn3)CC2)cc1C#Cc1ccccn1`, the figures for the AUC(0-t) in series [2], in [15] and in [18] were 47100 ng·h/mL, 519 ng·h/mL and 13400 ng·h/mL, respectively. Further, the Cmax in series [3] turned out to be 3.5 µM; in [7] it was 16.4 µM; in [12] it was 1790 nM; in [16], 11.9 µM; in series [23], 1090 nM. Moreover, the values for the bioavailability in series [4], in series [8] and in series [19] were 20%, 80% and 85%, respectively. For the same compound, the Kp in series [5] is 0.31; in series [20] it was 0.15. Further, the Vd worked out at 0.9 L/kg in series [6], 0.5 L/kg in [10] and 3.2 L/kg in [14]. In addition, the half-life is 23 min in [1], 60 min in [13], 126 min in series [21] and 12 min in series [22]. The clearance was found to be 121 mL/min/kg in [9], 3 mL/min/kg in series [11] and 12 mL/min/kg in series [17].
Compound `COc1ccc(C(=O)N2CCN(c3ccncn3)CC2)cc1C#Cc1ccccn1` came in with a half-life in series [1] of 18 min.
In turn, `COc1ccc(C(=O)N2CCN(c3ccccn3)CC2)cc1C#Cc1cccc(C)n1` yielded a half-life in series [1] of 11 min.
In turn, `COc1ccc(C(=O)N2CCN(c3ccccn3)CC2)cc1C#Cc1nccs1` showed a half-life in series [1] of 15 min.
On the same count and under the same terms, the result for `COc1ccc(C(=O)N2CCN(c3ccc(C)cn3)CC2)cc1C#Cc1ccccn1` reads more than 30 min.
